Measured values published in PubChem BioAssay (NCI).
Several values for one entry are separate records, joined by “and”; a condition that tells them apart may be missing. Equal entries are not always repeated.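 Step 1: Grow cells in 96-well plates. Step 2: Expose to compound for 48 hours at 5 concentrations. Step 3: Interpolate endpoints linearly; if unreached, use highest concentration. GI50 marks 50% less growth. At the TGI there is no net growth.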

Legend:
Assay in all cases: NCI anticancer screen, dose series, 48 h
A498 renal = tested on: A498 renal
SK-OV-3 ovarian = tested on: SK-OV-3 ovarian
UACC-257 melanoma = tested on: UACC-257 melanoma
CAKI-1 renal = tested on: CAKI-1 renal
COLO 205 colon = tested on: COLO 205 colon
OVCAR-8 ovarian = tested on: OVCAR-8 ovarian
786-0 renal = tested on: 786-0 renal
SW-620 colon = tested on: SW-620 colon
SF-268 CNS = tested on: SF-268 CNS
NCI-H23 lung = tested on: NCI-H23 lung

SMILES | GI50 (A498 renal) [µM] | TGI (A498 renal) [µM] | GI50 (SK-OV-3 ovarian) | TGI (SK-OV-3 ovarian) | GI50 (UACC-257 melanoma) | TGI (UACC-257 melanoma) | GI50 (CAKI-1 renal) | TGI (CAKI-1 renal) | GI50 (COLO 205 colon) | TGI (COLO 205 colon) | GI50 (OVCAR-8 ovarian) | TGI (OVCAR-8 ovarian) | GI50 (786-0 renal) | TGI (786-0 renal) | GI50 (SW-620 colon) | TGI (SW-620 colon) | GI50 (SF-268 CNS) | TGI (SF-268 CNS) | GI50 (NCI-H23 lung) | TGI (NCI-H23 lung)
COc1cc2c(F)nccc2cc1C(=O)N[C@@H](c1ccc(F)c(Cl)c1)[C@@H]1C[C@@H](O)CN1 | 0.0301 | 1.89 | 0.268 µM | 13.7 µM | 1.33 µM | 19.6 µM | 0.355 µM | 14.6 µM | 3.1 µM | 19.4 µM | 13.2 µM | 28.9 µM | 0.076 µM | 11.5 µM | 6.39 µM | 23.6 µM | 3.64 µM | 21.6 µM | 11.1 µM | 26 µM
O=C(c1ccc(OCCN2CCCCC2)cc1)c1c(-c2ccc(O)cc2)sc2cc(O)ccc12 | 11.6 | 26.2 | 11.3 µM and 14.2 µM | 23.3 µM and 30.4 µM | 2.82 µM and 3.52 µM | 10.8 µM and 10.5 µM | 4.65 µM and 14.4 µM | 20.6 µM and 34.1 µM | 12.3 µM and 9.73 µM | 24.7 µM and 40.6 µM | 13.4 µM and 18.2 µM | 31.5 µM and 51.3 µM | 4.5 µM and 7.58 µM | 18.2 µM and 27.6 µM | 7.64 µM and 13.4 µM | 22 µM and 39.2 µM | 6.67 µM and 12.8 µM | 20.1 µM and 35.5 µM | 10.8 µM and 18.5 µM | 27 µM and 45.2 µM
COC(=O)C(Cc1cnc[nH]1)NC(=O)CNC(=O)CCCn1c(=O)c2c3ccccc3n(C)c2n2nnc(-c3ccccc3)c12 (stereo not given) | > 100 | > 100 | > 100 µM | > 100 µM | > 100 µM | > 100 µM | > 100 µM | > 100 µM | > 100 µM | > 100 µM | > 100 µM | > 100 µM | > 100 µM | > 100 µM | > 100 µM | > 100 µM | > 100 µM | > 100 µM | > 100 µM | > 100 µM
C[N+](C)(C)CC(=O)N/N=C(\CCC(=O)NCCc1ccccc1)CC(=O)c1ccccc1 | – | > 100 | – | > 100 µM | – | > 100 µM | – | > 100 µM | – | > 100 µM | – | > 100 µM | – | > 100 µM | – | > 100 µM | – | > 100 µM | – | > 100 µM
NC(=O)C1c2ccccc2C=Cc2ccccc21 | > 100 | > 100 | > 100 µM | > 100 µM | > 100 µM | > 100 µM | > 100 µM | > 100 µM | > 100 µM | > 100 µM | > 100 µM | > 100 µM | > 100 µM | > 100 µM | > 100 µM | > 100 µM | > 100 µM | > 100 µM | > 100 µM | > 100 µM
O=C(CSc1nc2ccccc2nc1-c1ccccc1)Nc1ccc(Cl)cc1 | 31.4 | > 100 | 78.9 µM | > 100 µM | > 100 µM | > 100 µM | 12.5 µM | 38.1 µM | > 100 µM | > 100 µM | 25.5 µM | > 100 µM | 16 µM | 32.3 µM | 38.9 µM | > 100 µM | 15.5 µM | 51.3 µM | 30.5 µM | > 100 µM
O=C1OC(c2ccccc2)=N/C1=C\c1ccc2ccccc2c1 | – | > 100 | – | > 100 µM | – | > 100 µM | – | > 100 µM | – | > 100 µM | – | > 100 µM | – | > 100 µM | – | > 100 µM | – | > 100 µM | – | > 100 µM
N.N.N.N.O=NN1CCCCCC1(P(=O)([O-])[O-])P(=O)([O-])[O-].[Pt+4].[Pt+4] | > 100 | > 100 | > 100 µM | > 100 µM | > 100 µM | > 100 µM | > 100 µM | > 100 µM | > 100 µM | > 100 µM | > 100 µM | > 100 µM | > 100 µM | > 100 µM | > 100 µM | > 100 µM | > 100 µM | > 100 µM | > 100 µM | > 100 µM
Nc1ccccc1SC(CC(=O)c1ccccc1)c1ccc([N+](=O)[O-])cc1 (stereo not given) | 14.3 | 27.7 | 17.3 µM | 31 µM | 14.5 µM | 27.8 µM | 15.2 µM | 28.8 µM | 16.7 µM | 31.2 µM | 14.1 µM | 27.4 µM | 17.2 µM | 31 µM | 2.88 µM | 10.9 µM | 12.4 µM | 25.8 µM | 13.5 µM | 27.2 µM
COC(=O)[C@@]1(Cc2ccccc2)[C@H]2c3cc(C(=O)N4CCCC4)n(Cc4ccc(OC)c(OC)c4)c3C[C@H]2CN1C(=O)c1ccccc1 | 10.4 | 19.2 | 18.9 µM | > 50 µM | 7.72 µM | 15.2 µM | 14 µM | > 50 µM | 5.83 µM | 12.4 µM | 11.8 µM | 34.1 µM | 13.7 µM | > 50 µM | 6.92 µM | 13.4 µM | 13.3 µM | > 50 µM | 11.6 µM | 36.1 µM
CCN(CC)CC.CCOc1ccc(NC(=O)N=C=[N-])cc1.[CH-]1CCCCC1.[CH-]1CCCCC1.[CH-]1CCCCC1.[Cl-].[Sn+4] | 0.0423 | 0.0959 | 0.0466 µM | 0.118 µM | 0.0389 µM | 0.12 µM | 0.0282 µM | 0.0969 µM | 0.0184 µM | 0.0422 µM | 0.0424 µM | 0.123 µM | 0.0157 µM | 0.0372 µM | 0.0169 µM | 0.0326 µM | 0.0332 µM | 0.0954 µM | 0.0312 µM | 0.0882 µM
CC1=CC(=O)CC(C)(C)C1(O)/C=C/C(C)=C/C(=O)O (stereo not given) | – | > 100 | – | > 100 µM | – | > 100 µM | – | > 100 µM | – | > 100 µM | – | > 100 µM | – | > 100 µM | – | > 100 µM | – | > 100 µM | – | > 100 µM
C[C@H]1CC[C@H]([C@@H](C)[C@H]2[C@@H](O)C[C@H]3[C@@H]4CC[C@H]5C[C@@H](O)CC[C@]5(C)[C@H]4CC[C@]23C)NC1 | – | 32.1 | – | 31.7 µM | – | 35.7 µM | – | 34.3 µM | – | 45.7 µM | – | 32.2 µM | – | 37.1 µM | – | 41.9 µM | – | 67.1 µM | – | 32.5 µM
